Data as given in patent publication US12398154B2, “Azaquinazoline pan-KRas inhibitors” (Mirati Therapeutics, Inc., priority 2020, dated 2025).

Experiments:
[1] = target: KRas G12R (Homo sapiens, UniProt P01116, G12R); assay: biochemical;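 note: TR-FRET displacement assay of compound binding to KRas, read after one hour at room temperature, potency from a four-parameter fit of percent-of-control values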
Method: (§1) The ability of a compound to bind to KRas was measured using a TR-FRET displacement assay. […] After a 60-minute incubation at room temperature, the reaction was measured using a BMG LABTECH CLARIO star Plus via TR-FRET. […] The POC values were fit to a 4-parameter IC50 equation and the IC50 value reported.

[2] = target: KRas G12V (Homo sapiens, UniProt P01116, G12V); assay: biochemical;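 note: KRas binding measured by TR-FRET displacement at room temperature, IC50 fitted from percent of control values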
Sequence of KRas G12V (P01116 1-169 isoform P01116-2 G12V): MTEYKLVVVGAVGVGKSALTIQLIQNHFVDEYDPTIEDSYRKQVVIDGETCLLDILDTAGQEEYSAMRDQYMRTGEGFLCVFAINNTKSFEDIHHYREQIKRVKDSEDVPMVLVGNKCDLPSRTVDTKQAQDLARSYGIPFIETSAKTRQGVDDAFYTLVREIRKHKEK
Method: as §1

[3] = target: KRas G12D (Homo sapiens, UniProt P01116, G12D); assay: biochemical;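 note: TR-FRET displacement binding assay on KRas, read after a one-hour incubation at room temperature, IC50 fitted from percent-of-control values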
Sequence of KRas G12D (P01116 1-169 isoform P01116-2 G12D): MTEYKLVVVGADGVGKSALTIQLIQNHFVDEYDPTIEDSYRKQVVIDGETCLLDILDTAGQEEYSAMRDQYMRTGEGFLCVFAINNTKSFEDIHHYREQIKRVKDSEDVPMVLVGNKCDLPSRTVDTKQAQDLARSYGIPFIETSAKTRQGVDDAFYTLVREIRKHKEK
Method: as §1

[4] = system: pERK in ASPC1 cells; assay: Inhibition of KRas phosphorylation of ERK (Cisbio HTRF pERK assay); conditions: Homo sapiens, ASPC1, read-out: Inhibition (HTRF IC50) of KRas-mediated Phosphorylation of ERK, AsPC-1
[5] = system: pERK in H727 cells; assay: as above; conditions: Homo sapiens, NCI-H727, read-out: Inhibition (HTRF IC50) of KRas-mediated Phosphorylation of ERK, H727
[6] = target: KRas G12C (Homo sapiens, UniProt P01116, G12C); assay: biochemical;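 note: binding to KRas assessed by TR-FRET displacement after one hour incubation at room temperature, potency fitted from percent-of-control values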
Sequence of KRas G12C (P01116 1-169 isoform P01116-2 G12C): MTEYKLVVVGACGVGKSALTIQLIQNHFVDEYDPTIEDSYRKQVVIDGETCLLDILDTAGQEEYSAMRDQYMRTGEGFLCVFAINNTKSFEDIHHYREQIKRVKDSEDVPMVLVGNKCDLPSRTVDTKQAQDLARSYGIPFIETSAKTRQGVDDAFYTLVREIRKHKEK
Method: as §1

[7] = target: KRas WT (Homo sapiens, UniProt P01116); assay: biochemical;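 note: binding to KRas read as TR-FRET displacement after a one-hour room-temperature incubation, IC50 derived from percent-of-control values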
Sequence of KRas WT (P01116 1-169 isoform P01116-2): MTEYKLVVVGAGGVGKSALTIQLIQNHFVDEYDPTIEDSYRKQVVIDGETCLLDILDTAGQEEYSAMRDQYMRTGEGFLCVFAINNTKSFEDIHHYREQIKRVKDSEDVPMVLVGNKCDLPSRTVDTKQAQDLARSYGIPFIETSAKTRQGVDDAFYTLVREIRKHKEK
Method: as §1

[8] = target: KRas G12A (Homo sapiens, UniProt P01116, G12A); assay: biochemical;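 note: binding to KRas measured by TR-FRET displacement after one hour at room temperature, IC50 from a four-parameter fit of percent-of-control values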
Sequence of KRas G12A (P01116 1-169 isoform P01116-2 G12A): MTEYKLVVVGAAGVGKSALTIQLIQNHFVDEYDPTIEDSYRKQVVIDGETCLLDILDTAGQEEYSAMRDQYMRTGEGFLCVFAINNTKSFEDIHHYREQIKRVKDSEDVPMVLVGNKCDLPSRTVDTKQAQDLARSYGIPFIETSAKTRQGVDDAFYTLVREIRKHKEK
Method: as §1

[9] = target: KRas G12S (Homo sapiens, UniProt P01116, G12S); assay: biochemical;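 note: TR-FRET displacement binding to KRas, read after one hour incubation at room temperature, IC50 from four-parameter fit of percent of control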
Sequence of KRas G12S (P01116 1-169 isoform P01116-2 G12S): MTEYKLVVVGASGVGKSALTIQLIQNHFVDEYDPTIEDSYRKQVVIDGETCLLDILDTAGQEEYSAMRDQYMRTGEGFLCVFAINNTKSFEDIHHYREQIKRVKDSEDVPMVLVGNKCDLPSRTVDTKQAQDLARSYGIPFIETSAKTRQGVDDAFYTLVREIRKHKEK
Method: as §1

Sequence of KRas G12R (P01116 1-169 isoform P01116-2 G12R): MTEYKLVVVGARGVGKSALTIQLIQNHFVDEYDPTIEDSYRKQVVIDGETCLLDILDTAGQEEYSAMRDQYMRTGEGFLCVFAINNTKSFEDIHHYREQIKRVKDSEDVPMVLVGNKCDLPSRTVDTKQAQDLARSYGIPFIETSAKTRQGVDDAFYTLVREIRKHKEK

Row | Structure (SMILES) | IC50 [1] [µM] | IC50 [2] [µM] | IC50 [3] [µM] | IC50 [4] [µM] | IC50 [5] [µM] | IC50 [6] [µM] | IC50 [7] [µM] | IC50 [8] [µM] | IC50 [9] [µM]
1 | Cc1cc2[nH]ncc2c(-c2ncc3c(N4CCCC5(CNC(=O)C5)C4)nc(OCC45CCCN4CCC5)nc3c2F)c1C (stereo not shown) [Example 26, 7-(7-(5,6-dimethyl-1H-indazol-4-yl)-8-fluoro-2-((hexahydro-1H-pyrrolizin-7a-yl)methoxy)pyrido[4,3-d]pyrimidin-4-yl)-2,7-diazaspiro[4.5]decan-3-one] | 2.32 | 1.26 | 0.845 | ≥ 10 | ≥ 10 | – | – | – | –
2 | CCc1c(F)ccc2cc(O)cc(-c3ncc4c(N(C)CC5CC(=O)N5)nc(OC[C@@]56CCCN5C[C@H](F)C6)nc4c3F)c12 (stereo partly shown) [Example 384] | 0.032 | 0.012 | 0.038 | ≥ 10 | ≥ 10 | – | – | – | –
3 | O=C1CC2(CCCN(c3nc(OCC45CCCN4CCC5)nc4c(F)c(-c5cccc6cccc(C(F)F)c56)ncc34)C2)N1 (stereo not shown) [Example 466, 6-(7-(8-(difluoromethyl)naphthalen-1-yl)-8-fluoro-2-((hexahydro-1H-pyrrolizin-7a-yl)methoxy)pyrido[4,3-d]pyrimidin-4-yl)-1,6-diazaspiro[3.5]nonan-2-one] | 2.26 | 1.66 | 2.32 | – | – | 2.31 | 2.68 | 3.31 | 2.14
4 | O=C1CC2(CCCN(c3nc(OCC45CCCN4CCC5)nc4c(F)c(-c5cccc6cccc(C(F)(F)F)c56)ncc34)C2)N1 (stereo not shown) [Example 467, 6-(8-fluoro-2-((hexahydro-1H-pyrrolizin-7a-yl)methoxy)-7-(8-(trifluoromethyl)naphthalen-1-yl)pyrido[4,3-d]pyrimidin-4-yl)-1,6-diazaspiro[3.5]nonan-2-one] | 1.02 | 0.651 | 0.915 | – | – | 1.11 | 1.48 | 0.968 | 1.14
5 | O=C1CC2(CCCN(c3nc(OCC45CCCN4CCC5)nc4c(F)c(-c5cccc6cccc(CF)c56)ncc34)C2)N1 (stereo not shown) [Example 468, 6-(8-fluoro-7-(8-(fluoromethyl)naphthalen-1-yl)-2-((hexahydro-1H-pyrrolizin-7a-yl)methoxy)pyrido[4,3-d]pyrimidin-4-yl)-1,6-diazaspiro[3.5]nonan-2-one] | 2.9 | 2.31 | 2.88 | – | – | 2.41 | 3.02 | 2.81 | 2.48
6 | CSc1cccc2cccc(-c3ncc4c(N5CCCC6(CC(=O)N6)C5)nc(OCC56CCCN5CCC6)nc4c3F)c12 (stereo not shown) [Example 469, 6-(8-fluoro-2-((hexahydro-1H-pyrrolizin-7a-yl)methoxy)-7-(8-(methylthio)naphthalen-1-yl)pyrido[4,3-d]pyrimidin-4-yl)-1,6-diazaspiro[3.5]nonan-2-one] | 0.149 | 0.105 | 0.127 | – | – | 0.135 | 0.196 | 0.18 | 0.146
7 | O=C1CC2(CCCN(c3nc(OCC45CCCN4CCC5)nc4c(F)c(-c5cccc6cccc(CCF)c56)ncc34)C2)N1 (stereo not shown) [Example 470, 6-(8-fluoro-7-(8-(2-fluoroethyl)naphthalen-1-yl)-2-((hexahydro-1H-pyrrolizin-7a-yl)methoxy)pyrido[4,3-d]pyrimidin-4-yl)-1,6-diazaspiro[3.5]nonan-2-one] | 0.503 | 0.355 | 0.406 | – | – | 0.348 | 0.475 | 0.347 | 0.341
8 | Cc1cc2[nH]ncc2c(-c2ncc3c(N4CCCC(C)(O)C4)nc(OC[C@@]45CCCN4C[C@H](F)C5)nc3c2F)c1C (stereo partly shown) [Example 471] | 1.07 | 0.427 | 0.309 | – | – | 0.459 | 0.362 | 0.332 | 0.391
9 | Fc1c(-c2cccc3cccc(Cl)c23)ncc2c(NCCCOC(F)F)nc(OCC34CCCN3CCC4)nc12 [Example 474, 7-(8-chloronaphthalen-1-yl)-N-(3-(difluoromethoxy)propyl)-8-fluoro-2-((tetrahydro-1H-pyrrolizin-7a(5H)-yl)methoxy)pyrido[4,3-d]pyrimidin-4-amine] | 3.63 | 1.75 | 8.6 | – | – | 2.39 | 6.17 | 2.95 | 3.45
10 | NC(=O)C(O)CNc1nc(OCC23CCCN2CCC3)nc2c(F)c(-c3cccc4cccc(Cl)c34)ncc12 (stereo not shown) [Example 475, 3-((7-(8-chloronaphthalen-1-yl)-8-fluoro-2-((tetrahydro-1H-pyrrolizin-7a(5H)-yl)methoxy)pyrido[4,3-d]pyrimidin-4-yl)amino)-2-hydroxypropanamide] | 2.62 | 1.46 | 8.55 | – | – | 2.75 | 4.6 | 3.68 | 2.75
11 | CCc1c(F)ccc2cc(O)cc(-c3ncc4c(NCC5CNC5=O)nc(OC[C@@]56CCCN5C[C@H](F)C6)nc4c3F)c12 (stereo partly drawn) [Example 485, 3-(((7-(8-ethyl-7-fluoro-3-hydroxynaphthalen-1-yl)-8-fluoro-2-(((2R,7aS)-2-fluorotetrahydro-1H-pyrrolizin-7a(5H)-yl)methoxy)pyrido[4,3-d]pyrimidin-4-yl)amino)methyl)azetidin-2-one] | 0.003 | ≤ 0.002 | 0.009 | 6.62 | 1.22 | – | – | – | –
12 | CCc1c(F)ccc2cc(O)cc(-c3ncc4c(N5C[C@H]6C[C@@H](C5)[C@H](CO)[C@H]6O)nc(OC[C@@]56CCCN5C[C@H](F)C6)nc4c3F)c12 [Example 486, (1 R,5R,6S,7R)-3-(7-(8-ethyl-7-fluoro-3-hydroxynaphthalen-1-yl)-8-fluoro-2-(((2R,7aS)-2-fluorohexahydro-1H-pyrrolizin-7a-yl)methoxy)pyrido[4,3-d]pyrimidin-4-yl)-7-(hydroxymethyl)-3-azabicyclo[3.2.1]octan-6-ol] | 0.186 | 0.17 | 0.336 | ≥ 10 | ≥ 10 | – | – | – | –
13 | CCc1c(F)ccc2cc(O)cc(-c3ncc4c(N5CCC6C(=O)NC(=O)C6C5)nc(OC[C@@]56CCCN5C[C@H](F)C6)nc4c3F)c12 (stereo partly drawn) [Example 487, 5-(7-(8-ethyl-7-fluoro-3-hydroxynaphthalen-1-yl)-8-fluoro-2-(((2R,7aS)-2-fluorohexahydro-1H-pyrrolizin-7a-yl)methoxy)pyrido[4,3-d]pyrimidin-4-yl)hexahydro-1H-pyrrolo[3,4-c]pyridine-1,3(2H)-dione] | 0.006 | 0.005 | 0.014 | ≥ 10 | 4.99 | – | – | – | –
14 | CCc1c(F)ccc2cc(O)cc(-c3ncc4c(N(C)CC5CNS(=O)(=O)N5)nc(OC[C@@]56CCCN5C[C@H](F)C6)nc4c3F)c12 (stereo partly shown) [Example 495] | 0.007 | ≤ 0.002 | 0.008 | 1.35 | 1.82 | – | – | – | –
15 | O=S1(=O)NC[C@@]2(CCCN(c3nc(OC[C@@]45CCCN4C[C@H](F)C5)nc4c(F)c(-c5cc(O)cc6ccc(F)c(Cl)c56)ncc34)C2)N1 [Example 516, (S)-7-(7-(8-chloro-7-fluoro-3-hydroxynaphthalen-1-yl)-8-fluoro-2-(((2R,7aS)-2-fluorotetrahydro-1H-pyrrolizin-7a(5H)-yl)methoxy)pyrido[4,3-d]pyrimidin-4-yl)-2-thia-1,3,7-triazaspiro [4.5]decane2,2-dioxide] | – | – | – | 9.32 | 5.69 | – | – | – | –
